The subject of assay [1] is Trypanosoma brucei brucei. The assay can be described thus: Antitrypanosomal activity against bloodstream form of Trypanosoma brucei brucei […] after 48 hrs by alamar blue assay. Format: functional.
Assay [2] relates to Trypanosoma brucei brucei. The assay can be described thus: Resistance factor, ratio of IC50 for Trypanosoma brucei brucei B48 to IC50 for wild-type bloodstream form of Trypanosoma brucei brucei s427. Format: functional.
Assay [3] has as its system Trypanosoma brucei brucei. The assay can be described thus: Antitrypanosomal activity against TbAT1 and HAPT1-deficient Trypanosoma brucei brucei B48 after 48 hrs by alamar blue assay. It is filed as functional, organism-based. On the technique in general: Resazurin is reduced to fluorescent resorufin, in cell work by metabolically active cells.
For assay [4], the system named is Trypanosoma brucei brucei. The assay can be described thus: Antitrypanosomal activity against bloodstream form of Trypanosoma brucei brucei s427 after 48 hrs by alamar blue assay. Format: functional, organism-based. The following applies: s427, 48 h.
For assay [5], the system named is Trypanosoma brucei brucei. The assay can be described thus: Antitrypanosomal activity against TbAT1-deficient Trypanosoma brucei brucei after 48 hrs by alamar blue assay. It is filed as functional, organism-based.
For assay [6], the system named is Trypanosoma brucei brucei. The assay can be described thus: Resistance factor, ratio of IC50 for TbAT1-deficient bloodstream form of Trypanosoma brucei brucei to IC50 for wild-type bloodstream form of Trypanosoma brucei brucei s427. Format: functional.
Setting [7] is: Trypanosoma brucei, B48, 48 h, read-out: IC50.
[8] abbreviates: Trypanosoma brucei, 48 h, read-out: IC50.

Converted amounts (≈) assume the structure as drawn.

For orientation: MIC means the smallest concentration in the dilution series that meets the test's criterion for growth inhibition. Read a low MIC as inhibition by little substance. On to `CC(C)[C@@H]1N=C(C2CCCCC2)c2cc(NC(=N)N)ccc2N(Cc2ccc(NC(=N)N)cc2)C1=O`, for which, in assay [1], the minimal inhibitory concentration (MIC) worked out at 0.78 µM (≈ 0.381 µg/mL).
By IC50 is commonly meant the point on the concentration scale where inhibition reaches its midpoint. With `O=C1Nc2ccccc2C(c2ccccc2)=N[C@H]1Cc1ccccc1`, the “Ratio IC50” value in assay [2] amounted to 0.67; in assay [6], 0.57. The figures for the half-maximal inhibitory concentration (IC50) in assay [3] (setting [7]), in assay [4] and in assay [5] (setting [8]) were 9230 nM, 13800 nM and 7840 nM, respectively. Moreover, the minimum inhibitory concentration (MIC) in assay [1] was determined as 6.25 µM (≈ 2.04 µg/mL).
In assay [1], `O=C1Nc2ccccc2C(c2ccccc2)=N[C@@H]1Cc1ccccc1` registered an MIC of 50 µM (≈ 16.3 µg/mL).
With `CC(C)[C@H]1N=C(c2ccccc2)c2ccccc2NC1=O`, in assay [1], the minimal inhibitory concentration (MIC) came to 200 µM (≈ 55.7 µg/mL).
Same read-out and setting: next, `CC(C)[C@@H]1N=C(c2ccccc2)c2ccccc2NC1=O`: 100 µM (≈ 27.8 µg/mL); `CC(C)C1=NCC(=O)Nc2ccccc21`: > 400 µM.
The same measure, in the same setting: the result for `CC(C)C1=N[C@@H](Cc2ccccc2)C(=O)Nc2ccccc21` reads 50 µM (≈ 14.6 µg/mL); that for `CC(C)[C@@H]1N=C(C2CCCCC2)c2ccccc2NC1=O`, 25 µM (≈ 7.11 µg/mL); that for `CC(C)[C@@H]1N=C(C2CCCCC2)c2cc([N+](=O)[O-])ccc2NC1=O`, 12.5 µM (≈ 4.12 µg/mL).
The same measure, in the same setting: next, `O=C1Nc2ccccc2C(C2CCCCC2)=N[C@H]1Cc1ccccc1`: 12.5 µM (≈ 4.16 µg/mL).
As to `O=C1Nc2ccccc2C(c2ccccn2)=N[C@H]1Cc1ccccc1`, in assay [1], the MIC was 100 µM (≈ 32.7 µg/mL).
In assay [1], `CC(C)[C@@H]1N=C(c2ccccc2)c2ccccc2N(C)C1=O` had a minimal inhibitory concentration (MIC) of 100 µM (≈ 29.2 µg/mL).
In assay [1], `CC(C)[C@@H]1N=C(c2ccccc2)c2ccccc2N(Cc2ccccc2)C1=O` registered an MIC of 200 µM (≈ 73.7 µg/mL).
Still for that read-out and setting: next, `CC(C)[C@@H]1N=C(c2ccccc2)c2ccccc2N(Cc2ccccc2-c2ccccc2)C1=O`: 12.5 µM (≈ 5.56 µg/mL).
Same read-out and setting: the result for `CC(C)[C@@H]1N=C(c2ccccc2)c2ccccc2N(Cc2cccc3cccnc23)C1=O` reads 25 µM (≈ 10.5 µg/mL); that for `CC(C)[C@H]1N=C(c2ccccc2)c2ccccc2N(C)C1=O`, 200 µM (≈ 58.5 µg/mL); that for `CC(C)[C@H]1N=C(c2ccccc2)c2ccccc2N(Cc2ccccc2)C1=O`, 12.5 µM (≈ 4.61 µg/mL).
`CN1C(=O)[C@H](Cc2ccccc2)N=C(c2ccccc2)c2ccccc21` yielded an MIC in assay [1] of 50 µM (≈ 17 µg/mL).
On the same count and under the same terms, next, `O=C1[C@H](Cc2ccccc2)N=C(c2ccccc2)c2ccccc2N1Cc1ccccc1`: 6.25 µM (≈ 2.6 µg/mL); `O=C1[C@H](Cc2ccccc2)N=C(c2ccccc2)c2ccccc2N1Cc1ccc(-c2ccccc2)cc1`: 6.25 µM (≈ 3.08 µg/mL).
Same read-out and setting: next, `O=C1[C@H](Cc2ccccc2)N=C(c2ccccc2)c2ccccc2N1Cc1cccc(-c2ccccc2)c1`: 25 µM (≈ 12.3 µg/mL).
On the same count and under the same terms, the result for `O=C1[C@H](Cc2ccccc2)N=C(c2ccccc2)c2ccccc2N1Cc1ccccc1-c1ccccc1` reads 6.25 µM (≈ 3.08 µg/mL).
In the case of `O=C1[C@H](Cc2ccccc2)N=C(c2ccccc2)c2ccccc2N1Cc1cccc2cccnc12`, it took 25 µM (≈ 11.7 µg/mL) to inhibit growth in assay [1] (MIC). This MIC lies about 4-fold higher than the previous one.
On the same count and under the same terms, next, `N#CCN1C(=O)[C@H](Cc2ccccc2)N=C(c2ccccc2)c2ccccc21`: 3.1 µM (≈ 1.13 µg/mL).
On the same count and under the same terms, next, `O=C(O)CN1C(=O)[C@H](Cc2ccccc2)N=C(c2ccccc2)c2ccccc21`: 50 µM (≈ 19.2 µg/mL); `CN1C(=O)[C@@H](Cc2ccccc2)N=C(c2ccccc2)c2ccccc21`: 400 µM (≈ 136 µg/mL).
As for `O=C1[C@@H](Cc2ccccc2)N=C(c2ccccc2)c2ccccc2N1Cc1ccccc1`, in assay [1], the MIC stood at 12.5 µM (≈ 5.21 µg/mL).
For the compound `O=C1[C@H](COCc2ccccc2)N=C(c2ccccc2)c2ccccc2N1Cc1ccc(-c2ccccc2)cc1`, the lowest concentration to inhibit growth in assay [1] (MIC) was 25 µM (≈ 13.1 µg/mL).
Regarding `O=C1[C@H](COCc2ccccc2)N=C(c2ccccc2)c2ccccc2N1Cc1cccc(-c2ccccc2)c1`, the minimum inhibitory concentration (MIC) in assay [1] amounted to 25 µM (≈ 13.1 µg/mL).
On to `O=C1[C@H](COCc2ccccc2)N=C(c2ccccc2)c2ccccc2N1Cc1cccc2cccnc12`, for which the MIC in assay [1] was 12.5 µM (≈ 6.22 µg/mL).
The compound `CC(C)C1=NCC(=O)N(C)c2ccccc21` yielded an MIC in assay [1] of 400 µM (≈ 86.5 µg/mL). This MIC is about 32-fold higher than that of the compound before.
Still for that read-out and setting: the result for `CC(C)C1=N[C@@H](Cc2ccccc2)C(=O)N(C)c2ccccc21` reads 25 µM (≈ 7.66 µg/mL); that for `O=C1[C@H](Cc2ccccc2)N=C(C2CCCCC2)c2ccccc2N1Cc1ccccc1`, 6.25 µM (≈ 2.64 µg/mL).
Take `Nc1ccc(CN2C(=O)[C@H](Cc3ccccc3)N=C(c3ccccc3)c3ccccc32)cc1`: the minimal inhibitory concentration (MIC) in assay [1] is 12.5 µM (≈ 5.39 µg/mL).
Still for that read-out and setting: next, `Nc1cccc(CN2C(=O)[C@H](Cc3ccccc3)N=C(c3ccccc3)c3ccccc32)c1`: 6.25 µM (≈ 2.7 µg/mL).
Still for that read-out and setting: the result for `Nc1ccccc1CN1C(=O)[C@H](Cc2ccccc2)N=C(c2ccccc2)c2ccccc21` reads 6.25 µM (≈ 2.7 µg/mL).
`CC(C)[C@@H]1N=C(C2CCCCC2)c2ccccc2N(Cc2ccc(N)cc2)C1=O` gave a minimum inhibitory concentration (MIC) in assay [1] of 6.25 µM (≈ 2.43 µg/mL).
The same measure, in the same setting: the result for `CC(C)[C@@H]1N=C(C2CCCCC2)c2cc(N)ccc2N(Cc2ccc(N)cc2)C1=O` reads 6.25 µM (≈ 2.53 µg/mL).
On the same count and under the same terms, the result for `Nc1ccc(CN2C(=O)[C@H](Cc3ccccc3)N=C(C3CCCCC3)c3ccccc32)cc1` reads 6.25 µM (≈ 2.73 µg/mL); that for `Nc1cccc(CN2C(=O)[C@H](Cc3ccccc3)N=C(C3CCCCC3)c3ccccc32)c1`, 6.25 µM (≈ 2.73 µg/mL).
As to `Nc1ccc(CN2C(=O)[C@H](Cc3ccccc3)N=C(c3ccccn3)c3ccccc32)cc1`, the MIC in assay [1] was determined as 25 µM (≈ 10.8 µg/mL). This MIC lies about 4-fold higher than the previous one.
On the same count and under the same terms, the result for `CC(C)[C@@H]1N=C(C2CCCCC2)c2cc(N)ccc2NC1=O` reads 100 µM (≈ 29.9 µg/mL).
As to `N=C(N)Nc1ccc(CN2C(=O)[C@H](Cc3ccccc3)N=C(c3ccccc3)c3ccccc32)cc1`, the “Ratio IC50” value is recorded as 2.68 in assay [2] and 1.29 in assay [6]. For the same compound, the half-maximal inhibitory concentration (IC50) in assay [3] (setting [7]) was found to be 1310 nM; in assay [4], 490 nM; in assay [5] (setting [8]), 640 nM. Moreover, in assay [1], the MIC came to 0.78 µM (≈ 0.369 µg/mL).
With `N=C(N)Nc1cccc(CN2C(=O)[C@H](Cc3ccccc3)N=C(c3ccccc3)c3ccccc32)c1`, the “Ratio IC50” value stood at 3.52 in assay [2] and 1.45 in assay [6]. Moreover, the IC50 stood at 940 nM in assay [3] (setting [7]), 270 nM in assay [4] and 390 nM in assay [5] (setting [8]). The compound further displayed an MIC in assay [1] of 0.78 µM (≈ 0.369 µg/mL).
Turning to `N=C(N)Nc1ccccc1CN1C(=O)[C@H](Cc2ccccc2)N=C(c2ccccc2)c2ccccc21`, in assay [1], inhibition of growth (MIC) required 1.56 µM (≈ 0.739 µg/mL).
Same read-out and setting: the result for `CC(C)[C@@H]1N=C(C2CCCCC2)c2ccccc2N(Cc2ccc(NC(=N)N)cc2)C1=O` reads 6.25 µM (≈ 2.7 µg/mL); that for `N=C(N)Nc1ccc(CN2C(=O)[C@H](Cc3ccccc3)N=C(C3CCCCC3)c3ccccc32)cc1`, 0.78 µM (≈ 0.374 µg/mL).
As for `N=C(N)Nc1cccc(CN2C(=O)[C@H](Cc3ccccc3)N=C(C3CCCCC3)c3ccccc32)c1`, the “Ratio IC50” value in assay [2] is listed as 2.8; in assay [6], 1.53. The concentration for half-maximal inhibition (IC50) in assay [3] (setting [7]) stood at 930 nM; in assay [4], 330 nM; in assay [5] (setting [8]), 510 nM. The same compound registered a minimal inhibitory concentration (MIC) in assay [1] of 1.56 µM (≈ 0.748 µg/mL).
The compound `N=C(N)Nc1ccc(CN2C(=O)[C@H](Cc3ccccc3)N=C(c3ccccn3)c3ccccc32)cc1` registered an MIC in assay [1] of 3.13 µM (≈ 1.49 µg/mL). In other words, the single-digit micromolar range.
As to `CC(C)[C@@H]1N=C(C2CCCCC2)c2cc(NC(=N)N)ccc2NC1=O`, in assay [1], the minimum inhibitory concentration (MIC) is 1.56 µM (≈ 0.533 µg/mL).
Same read-out and setting: the result for `N=C(N)NCCC[C@@H]1N=C(c2ccccc2)c2ccccc2NC1=O` reads 400 µM (≈ 134 µg/mL); that for `O=C(CN1C(=O)[C@H](Cc2ccccc2)N=C(c2ccccc2)c2ccccc21)N1CCN(c2ncccn2)CC1`, 12.5 µM (≈ 6.63 µg/mL); that for `O=C(CN1C(=O)[C@H](Cc2ccccc2)N=C(c2ccccc2)c2ccccc21)N1CCN(c2ccccn2)CC1`, 6.25 µM (≈ 3.31 µg/mL).
`O=C(CN1C(=O)[C@H](Cc2ccccc2)N=C(c2ccccc2)c2ccccc21)N1CCNCC1` showed an MIC in assay [1] of 12.5 µM (≈ 5.66 µg/mL). This MIC is about 2-fold higher than that of the compound before.
Consider `Nc1nc(N)nc(Nc2ccc([As]3SCC(CO)S3)cc2)n1` (stereo not given) [MELARSOPROL], for which the 50% inhibitory concentration (IC50) entry in assay [3] and in assay [5] was “Not Active” each time.
On to `N=C(N)c1ccc(OCCCCCOc2ccc(C(=N)N)cc2)cc1` [PENTAMIDINE], for which the IC50 entry in assay [3] and in assay [5] was “Not Active” in each case.
`O=C1CN=C(c2ccccc2)c2ccccc2N1` [RO-052921] had a minimum inhibitory concentration (MIC) in assay [1] of 400 µM (≈ 94.5 µg/mL).
Same read-out and setting: next, `Cc1ccc(C(=O)Nc2ccc(S(=O)(=O)O)c3cc(S(=O)(=O)O)cc(S(=O)(=O)O)c23)cc1NC(=O)c1cccc(NC(=O)Nc2cccc(C(=O)Nc3cc(C(=O)Nc4ccc(S(=O)(=O)O)c5cc(S(=O)(=O)O)cc(S(=O)(=O)O)c45)ccc3C)c2)c1` [SURAMIN HEXASODIUM]: 0.13 µM.

For the origin of these results see ChEMBL document CHEMBL1681683, “Synthesis and biological evaluation of 1,4-benzodiazepin-2-ones with antitrypanosomal activity” (Bioorg Med Chem, 2011).
